According to publication PMC9884808, “Pharmacokinetics, tissue distribution, and antitumor activity of a novel compound, NY-2, in non-small cell lung cancer” (Frontiers in Pharmacology, 2023):
Marks after values point to notes of the source that are not given here.

Legend:
A549 cells [1] = conditions: 28 days
Description: The experimental groups included the normal (no tumor cells, vehicle) group, the model (tumor cells, vehicle) group, NY-2-treated, and paclitaxel-treated groups, with six mice in each group. After 7 days for adaptation, 200 µL of A549 cells (2× 10^6 cells/mice) in serum-free medium were injected into the tail vein except for those in the normal group. Drug or vehicle administration via tail vein was started on the next day. The normal group and model group were given the same amount of sterile water containing 1% DMSO and 1% Tween as vehicle control. […] Injections were done every other day. The general conditions of the nude mice, with regard to activity and food ingestion, were observed every day, and their body weight was measured every other day.
KM mice were treated with ZLDI-8 or NY-2 by tail vein injection (6 mg/kg) for 7 days, then the mice were euthanized and liver and kidney tissues were removed and sectioned. For the experiment with BALB/c nude mice, the tail vein injections of NY-2 (6 mg/kg) were continued for 28 days, and the lungs, tumor, heart, liver, and kidney were removed. […] Sections for staining were dewaxed with xylene and then rehydrated, and hematoxylin-eosin staining was performed, after which the sections were again dehydrated in ethanol and cleared with xylene before being mounted on a slide, cover-slipped and examined microscopically. The remainder of the tumors and tissues was frozen in liquid nitrogen for other studies.

[2] = Pharmacokinetics in rats after tail vein injection; assay type: in vivo, Sprague-Dawley rats; conditions: for Cmax / half-life / MRT last / AUC(0-inf) / AUC(0-t): male, Sprague-Dawley, plasma; for MRT last: read-out: MRT0-t; for AUC(0-inf) / AUC(0-t): 6 mg/kg
Description: We used the online ADME prediction tool Swiss AMDE (http://www.swissadme.ch/index.php) (SwissADME, 2017) to analyze the physicochemical descriptors and ADME parameters of NY-2 and ZLDI-8, to predict their pharmacokinetic properties, drug-like nature, and medicinal chemistry. […] Male Sprague-Dawley rats weighing 240 ± 20 g were purchased from Liaoning Changsheng Biotechnology Co., Ltd. (Liaoning, China, animal license #SCXK-2015-0001). Rats were used for the tissue distribution and pharmacokinetics experiments because of their larger body fluid volume. The rats were fasted for 12 h before the experiment but allowed to drink water freely. Animals were anesthetized with 4% chloral hydrate (0.5 mL/100 g), the total blood volume was collected from the abdominal aorta and quickly dispensed into heparinized EP tubes prepared in advance. The rats were euthanized after blood collection was completed. Plasma samples were subjected to a protein precipitation method for the quantitative analysis of ZLDI-8 and NY-2 by LC-MS/MS (API 3200MD, AB Sciex, United States). The samples were injected into the ionization source by the auto-sampler. A series of standard solutions of ZLDI-8 were prepared with final concentrations of 20, 50, 100, 250, 500, 1000, and 1500 ng/mL; and NY-2 was prepared with final concentrations of 100, 200, 500, 800, 1200, 1600, and 2000 ng/mL. The linear equation and correlation coefficient (r) of the regression curve were calculated from these concentrations and the corresponding absorption data. The specificity, lower limit of quantification (LLOQ), linear range, precision, accuracy, matrix effects, extraction recovery, stability of analytes during the whole process of storage, as well as treatment in a biological matrix and solution were determined to verify the reliability of the compound concentrations in vivo.
The plasma concentration-time concentration data of ZLDI-8 and NY-2 at different times were fitted by DAS2.0 pharmacokinetics software and the drug-time curve was drawn. The drug-time curves of the two compounds were compared and simulated, and a two-compartment model was selected to calculate the pharmacokinetic parameters using the statistical moment algorithm. The peak value (Cmax), half-life (t1/2), area under the curve (AUC0-t and AUC0-∞), plasma clearance rate (CL), mean retention time (MRT), and other parameters of the test data were expressed as mean ± SD. Statistical analyses were performed using GraphPad Prism 5 (GraphPad Software, San Diego, CA, United States), and all experiments were repeated at least three times. […] The experimental results are presented as mean ± SD or mean ± SEM, and significant differences are defined as p ≤ .05.
Plasma samples obtained after the SD rat tail vein injection of ZLDI-8 and NY-2 were processed and analyzed by HPLC-MS/MS, and the measured peak areas of ZLDI-8 and NY-2 were compared with the internal standard peak areas. The accompanying standard curves were used to calculate the plasma drug concentrations of each rat at different time points from the measured values. The plasma concentration-time data of ZLDI-8 and NY-2 at different times were fitted by DAS2.0 pharmacokinetic software, and the pharmacokinetic outcomes of the two compounds were obtained according to the two-compartment model and the pharmacokinetic parameters are shown in Table 2. The average plasma concentration-time curve after intravenous injection of 6 mg/kg compound ZLDI-8 and NY-2 was obtained by plotting the plasma concentrations against time.

A549 cells [3] = assay: LDH activity assay; assay type: cell-based, human; conditions: 48 h, increasing concentrations, vs control
Description: Cell viability was measured by the MTT assay. HCT116, HL7702, A549, H1993, HCC827, and H460 cells were dispensed into 96-well plates at a density of 1 × 10^5 cells/mL. After 24–48 h incubation, cells were treated with the compounds at different concentrations for the indicated periods. An assay kit (WLA073, Wanlei Co., Liaoning, China), was used according to the manufacturer’s instructions to measure LDH activity, The absorbance at 450 nm was measured with a microplate reader (Elx-800, Bio-Rad, China).

A549 cells [4] = assay: Wound-healing migration assay; assay type: cell-based, human; conditions: 48 h
Description: A wound-healing assay was used to assess the migration ability. Cells were seeded into 6-well plates at 3 × 10^5 cells per well. At about 90% confluence, uniform scratches were made in the monolayer using a sterile 200 μL pipet tip. After washing with phosphate-buffered saline (PBS), the cells were cultured in 2% FBS medium and photos were taken at 0 and 48 h. The rate of cell migration was determined by measuring the decrease in gap with compared to the initial gap at 0 h. Readings were performed independently in triplicate.

[5] = nude mice, NY-2 6 mg/kg, paclitaxel 1 mg/kg, n=6, mean ± SEM
[6] = intravenous, rat, tail vein injection 6 mg/kg, mean ± SD, n = 6
[7] = iv, rat, tail vein injection 6 mg/kg, mean ± SD, n = 6
[8] = rat, iv, intravenous injection 6 mg/kg
[9] = rat, iv, tail vein injection 6 mg/kg, mean ± SD, n = 6

Cc1c(C=C2C(=O)NC(=S)NC2=O)c2ccccc2n1CCOc1ccc(F)cc1 [NY-2]
Body weight before dissection (A549 cells [1]; nude mice with A549 lung metastasis, tail vein every other day, NY-2 6 mg/kg, paclitaxel 1 mg/kg, n=6, mean ± SEM): 23.48 ± 0.50 g | Heart as a proportion of body weight (A549 cells [1]; [5]): 0.56 ± 0.03 10^-2 | Kidney as a proportion of body weight (A549 cells [1]; [5]): 1.74 ± 0.03 10^-2 | Liver as a proportion of body weight (A549 cells [1]; [5]): 5.45 ± 0.05# 10^-2 | Lung as a proportion of body weight (A549 cells [1]; [5]): 0.67 ± 0.03 10^-2 | Quality of the heart (A549 cells [1]; [5]): 0.13 ± 0.01 g | Quality of the kidney (A549 cells [1]; [5]): 0.41 ± 0.01 g | Quality of the liver (A549 cells [1]; [5]): 1.28 ± 0.04 g | Quality of the lung (A549 cells [1]; [5]): 0.16 ± 0.01 g | average percentage of metastatic lung surface area to the total lung area (A549 cells [1]; nude mice, A549 tail vein, NY-2 6 mg/kg every other day, model group 12.91 ± 11.93%): 0.25 ± .62% | infiltration of A549 cells in the lung tissue (H&E) (A549 cells [1]; nude mice, NY-2 6 mg/kg, paclitaxel 1 mg/kg): no infiltration of A549 cells in the lung tissue | toxic effects on the heart, liver or kidney (H&E) (A549 cells [1]; nude mice, tail vein injection 6 mg/kg): no obvious toxic effects | Cmax [2, 6]: 2750 ng/mL | Cmax [2, 7]: 2750 ± 1110 ng/mL | half-life [2, 7]: 129 ± 37.2 min | MRT last [2, 7]: 64.2 ± 9.6 min | AUC(0-inf) [2, 8]: 402 ng·h/mL | AUC(0-t) [2, 8]: 370 ng·h/mL | AUC(0-inf) [2, 9]: 402 ± 130 ng·h/mL | AUC(0-t) [2, 9]: 370 ± 111 ng·h/mL | MRT0-t of NY-2 relative to ZLDI-8 (printed: lower) ([2]; rat, 6 mg/kg iv): 3.5 times | plasma clearance (CL) of NY-2 as share of ZLDI-8's ([2]; rat, 6 mg/kg iv): 22.2% | t1/2 of NY-2 relative to ZLDI-8 (longer) ([2]; rat, 6 mg/kg iv): approximately 3.6 fold | CLZ rate of NY-2 as fraction of that of ZLDI-8 ([2]; rats): 1/5 | LDH activity in cell culture supernatants (A549 cells [3]): increased in a concentration-dependent manner | migration of A549 cells (A549 cells [4]): inhibit the invasion and migration of A549 cells in a concentration-dependent manner

Cc1ccc(OCCn2c(C)c(C=C3C(=O)NC(=S)NC3=O)c3ccccc32)c(C)c1 [ZLDI-8, reference compound]
Cmax [2, 6]: 337 ng/mL | Cmax [2, 7]: 337 ± 19.4 ng/mL | half-life [2, 7]: 35.4 ± 15.6 min | MRT last [2, 7]: 18.6 ± 1.2 min | AUC(0-inf) [2, 8]: 85.2 ng·h/mL | AUC(0-t) [2, 8]: 58.8 ng·h/mL | AUC(0-inf) [2, 9]: 85.2 ± 26.3 ng·h/mL | AUC(0-t) [2, 9]: 58.8 ± 4.62 ng·h/mL
